Assay results: the RepoRT retention time repository

Test: RP, Waters ACQUITY Premier BEH C18, 100 × 2.1 mm, 1.7 µm, 40 °C, 0.3 to 0.4 mL/min, estimated dead time 0.73 min; A: water + 0.1% formic acid; B: acetonitrile + 0.1% formic acid; gradient (min/%B) 0/0.5 0.1/0.5 10/80 10.1/99.5 12/0.5 12.1/0.5 14.5/0.5
Conditions: stereoisomer not certain

Structure (SMILES) | LC retention time [min]
O=C(O)C1=COC(OC2OC(CO)C(O)C(O)C2O)C2C(CO)=CCC12 (centres undefined) [GENIPOSIDIC ACID] | 1.89
O=c1c(-c2ccc(O)cc2)coc2cc(O)cc(O)c12 [GENISTEIN] | 6.07
O=c1c(-c2ccc(O)cc2)coc2cc(OC3OC(CO)C(O)C(O)C3O)cc(O)c12 (centres undefined) [GENISTIN] | 4.57
C=C1CC23CC1(O)CCC2C12C=CC(O)C(C)(C(=O)O1)C2C3C(=O)O (centres undefined) [GIBBERELLIN A3] | 5.05
CCCCCC(O)CC(=O)CCc1ccc(O)c(OC)c1 (centres undefined) [GINGEROL] | 7.34
CC1C(=O)OC2CC34C5CC(C(C)(C)C)C36C(OC(=O)C6O)OC4(C(=O)O5)C21O (centres undefined) [GINKGOLIDE A] | 5.66
CC1C(=O)OC2C(O)C34C5CC(C(C)(C)C)C36C(OC(=O)C6O)OC4(C(=O)O5)C12O (centres undefined) [GINKGOLIDE B] | 5.64
CC1C(=O)OC2C(O)C34C5OC(=O)C3(OC3OC(=O)C(O)C34C(C(C)(C)C)C5O)C12O (centres undefined) [GINKGOLIDE C] | 4.74
O=C(O)CCCC(=O)O [GLUTARATE] | 3.5
O=C(O)C(O)CO (centres undefined) [GLYCERATE] | 0.911
CCCCCCCCCCCCCC(=O)OCC(O)CO (centres undefined) [GLYCEROL-MYRISTATE] | 8.67
CC(CCC(=O)NCC(=O)O)C1CCC2C3C(O)CC4CC(O)CCC4(C)C3CC(O)C12C (centres undefined) [GLYCOCHOLATE] | 6.68
CC1(C(=O)O)CCC2(C)CCC3(C)C(=CC(=O)C4C5(C)CCC(O)C(C)(C)C5CCC43C)C2C1 (centres undefined) [GLYCYRRHETINIC ACID] | 8.08
CC1(C(=O)O)CCC2(C)CCC3(C)C(=CC(=O)C4C5(C)CCC(OC6OC(C(=O)O)C(O)C(O)C6OC6OC(C(=O)O)C(O)C(O)C6O)C(C)(C)C5CCC43C)C2C1 (centres undefined) [GLYCYRRHIZIN] | 6.4
Nc1nc2nc[nH]c2c(=O)[nH]1 [GUANINE] | 1.29
Nc1nc2c(ncn2C2OC(COP(=O)(O)OP(=O)(O)OC3OC(CO)C(O)C(O)C3O)C(O)C2O)c(=O)[nH]1 (centres undefined) [GUANOSINE DIPHOSPHATE MANNOSE] | 1.37
Nc1nc2c(ncn2C2OC(COP(=O)(O)O)C(O)C2O)c(=O)[nH]1 (centres undefined) [GUANOSINE MONOPHOSPHATE] | 1.57

Structure (SMILES) | LC retention time [min]
Nc1nc2c(ncn2C2OC(CO)C(O)C2O)c(=O)[nH]1 (centres undefined) [GUANOSINE] | 3.37
COc1ccc2c3c([nH]c2c1)C(C)=NCC3 [HARMALINE] | 4.51
Cc1nccc2c1[nH]c1ccccc12 [HARMAN] | 4.24
COc1ccc(C2CC(=O)c3c(O)cc(OC4OC(CO)C(O)C(O)C4OC4OC(C)C(O)C(O)C4O)cc3O2)cc1O (centres undefined) [HESPERETIN 7-NEOHESPERIDOSIDE] | 4.83
COc1ccc(C2CC(=O)c3c(O)cc(O)cc3O2)cc1O (centres undefined) [HESPERETIN] | 6.26
COc1ccc(C2CC(=O)c3c(O)cc(OC4OC(COC5OC(C)C(O)C(O)C5O)C(O)C(O)C4O)cc3O2)cc1O (centres undefined) [HESPERIDINE] | 4.77
O=C(O)CCCCCCCCCCCCCCC(=O)O [HEXADECANEDIOIC ACID] | 7.67
CCCCCC(=O)NCC(=O)O [HEXANOYLGLYCINE] | 5.2
O=C(O)CNC(=O)c1ccccc1 [HIPPURATE] | 4.57
NC1CCSC1=O (centres undefined) [HOMOCYSTEINE THIOLACTONE] | 0.939
NC(CCS)C(=O)O (centres undefined) [HOMOCYSTEINE] | 0.963
NC(CCSSCCC(N)C(=O)O)C(=O)O (centres undefined) [HOMOCYSTINE] | 0.958
O=C(O)Cc1cc(O)ccc1O [HOMOGENTISATE] | 3.66
COc1cc(CC(=O)O)ccc1O [HOMOVANILLATE] | 4.66
COc1ccc(CC(=O)O)cc1OC [HOMOVERATRIC ACID] | 5.34
Oc1ccc(O)cc1 [HYDROQUINONE] | 4.46
CC(C)CC(O)C(=O)O (centres undefined) [HYDROXYISOCAPROIC ACID] | 4.88
